Like-named read-outs stand apart in the source and are kept apart here.
How the values were obtained:
viruses = experiment: Disinfection of biosolids with chlorine dioxide: viruses
bacteria = experiment: Disinfection of biosolids with chlorine dioxide: bacteria
Ascaris eggs [1] = experiment: Disinfection of biosolids with chlorine dioxide alone: Ascaris eggs; settings: concentrations as high as 1000 ppm
[2] = 1500 mg/L
Ascaris = settings: biosolids, closed system; cited from earlier work
Ascaris eggs [3] = settings: for Time to PFRP: closed system
poliovirus = settings: ozone at 20–30 mg/L at pH 3.0 for at least two hours; cited from earlier work
Fecal coliform = settings: ozone at 20–30 mg/L at pH 3.0 for at least two hours; cited from earlier work
C. perfringens spores = settings: only ozone used; cited from earlier work
[4] = 24 h, 500 mg/L

[O][Cl+][O-] [chlorine dioxide]
inactivation of viruses (viruses): capable of inactivating
inactivation of bacteria (bacteria): capable of inactivating
inactivation of Ascaris eggs (Ascaris eggs [1]): not able to inactivate

O=NO [nitrous acid]
remaining nitrous acid [2]: below 500 mg/L
concentration capable of Ascaris inactivation (Ascaris): above 400 mg/L
remaining HNO2 dose for PFRP to be reached in two hours (Ascaris eggs [3]; predicted using Equation 2): at least 25.46 mg/g

O=[O+][O-] [ozone]
inactivation of poliovirus (poliovirus): at least 90%
Fecal coliform reduction (Fecal coliform): reduced to a non-detectable level
inactivation of C. perfringens spores (C. perfringens spores): not effective

O=NO [sodium nitrite]
remaining sodium nitrite level [4]: 150 to 250 mg/L
Time to PFRP (Ascaris eggs [3]; TSS 3.02 %, initial NO2 dose 697 mg/L): 12 h
Time to PFRP (Ascaris eggs [3]; TSS 3.02 %, initial NO2 dose 1046 mg/L): 2 h
Time to PFRP (Ascaris eggs [3]; TSS 5.54 %, initial NO2 dose 1754 mg/L): 2 h
Time to PFRP (Ascaris eggs [3]; TSS 5.54 %, initial NO2 dose 2573 mg/L): 2 h
Average [NO2] Remaining (697 mg/L): 340 mg/L
Average [NO2] Remaining (1046 mg/L): 490 mg/L
Average [NO2] Remaining (1754 mg/L): 1150 mg/L
Average [NO2] Remaining (2573 mg/L): 1580 mg/L

— patent US7279099B2, “Sludge treatment process” (FKOS, LLC, priority 2004, dated 2007)
